Structures can show the parent of a compound that is named as a salt.
SMILES	melting point [°C]
CCC(CC)(c1ccccc1)c1nnc(-c2c(C)nn3c2N[C@@H](c2ccccc2)CC3(C)C)s1 [Example 1145, (5R)-3-(5-(1-ethyl-1-phenylpropyl)-1,3,4-thiadiazol-2-yl)-2,7,7-trimethyl-5-phenyl-4,5,6,7-tetrahydropyrazolo[1,5-a]pyrimidine]	174 to 175
CC1(C)CC(c2ccccc2)Nc2c(C(=O)NC(C3CCCCC3)C3CCCCC3)cnn21 (stereo not shown) [Example 433, N-(dicyclohexylmethyl)-7,7-dimethyl-5-phenyl-4,5,6,7-tetrahydropyrazolo[1,5-a]pyrimidine-3-carboxamide]	187 to 188
CC1(NC(=O)c2cnn3c2NC(c2ccccc2)CC3(C)C)CCCCC1 (stereo not shown) [Example 586, 7,7-dimethyl-N-(1-methylcyclohexyl)-5-phenyl-4,5,6,7-tetrahydropyrazolo[1,5-a]pyrimidine-3-carboxamide]	170 to 171
CCCC(CC)(CC)NC(=O)c1c(C)nn2c1NC(c1ccccc1F)CC2(C)C (stereo not shown) (as salt: HCl) [Example 957, N-(1,1-diethylbutyl)-5-(2-fluorophenyl)-2,7,7-trimethyl-4,5,6,7-tetrahydropyrazolo[1,5-a]pyrimidine-3-carboxamide]	181 to 182
CCC(CC)(NC(=O)c1cnn2c1NC(c1ccccc1)CC2(C)C)c1ccc(F)c(F)c1 (stereo not shown) [Example 589, N-(1-(3,4-difluorophenyl)-1-ethylpropyl)-7,7-dimethyl-5-phenyl-4,5,6,7-tetrahydropyrazolo[1,5-a]pyrimidine-3-carboxamide]	171 to 172
CCC1(CC)C[C@@H](OCc2ccccc2)CN1C(=O)c1cnn2c1N[C@H](c1ccccc1)CC2(C)C [Example 1105, (5S)-3-(((4R)-4-(benzyloxy)-2,2-diethyl-1-pyrrolidinyl)carbonyl)-7,7-dimethyl-5-phenyl-4,5,6,7-tetrahydropyrazolo[1,5-a]pyrimidine]	172 to 174
CCC(NC(=O)c1cnn2c1NC(c1ccccc1)CC2C(F)(F)F)c1ccccc1C (stereo not shown) [Example 399, N-(1-(2-methylphenyl)propyl)-5-phenyl-7-(trifluoromethyl)-4,5,6,7-tetrahydropyrazolo[1,5-a]pyrimidine-3-carboxamide]	225 to 226
Cc1nn2c(c1C(=O)O)NC(c1cccc(F)c1)CC2(C)C (stereo not shown) [Example 945, 5-(3-fluorophenyl)-2,7,7-trimethyl-4,5,6,7-tetrahydropyrazolo[1,5-a]pyrimidine-3-carboxylic acid]	153 to 155
CCC(CC)(NC(=O)c1cnn2c1NC(c1ccccc1)CC2(C)C)c1ccc(Cl)nc1 (stereo not shown) [Example 573, N-(1-(6-chloro-3-pyridinyl)-1-ethylpropyl)-7,7-dimethyl-5-phenyl-4,5,6,7-tetrahydropyrazolo[1,5-a]pyrimidine-3-carboxamide]	223 to 224
CCC1(NC(=O)c2cnn3c2NC(c2ccccc2)CC3(C)C)CCCC1 (stereo not shown) (as salt: HCl) [Example 588, N-(1-ethylcyclopentyl)-7,7-dimethyl-5-phenyl-4,5,6,7-tetrahydropyrazolo[1,5-a]pyrimidine-3-carboxamide]	140 to 142
CC(C)C(NC(=O)c1cnn2c1NC(c1ccccc1)CC2(C)C)C(C)C (stereo not shown) [Example 621, N-(1-isopropyl-2-methylpropyl)-7,7-dimethyl-5-phenyl-4,5,6,7-tetrahydropyrazolo[1,5-a]pyrimidine-3-carboxamide]	168 to 169
Cc1nn2c(c1C(=O)OC1C(C)(C)[C@H]3CC[C@]1(C)C3)NC(c1ccccc1)CC2(C)C (stereo partly drawn) (as salt: HCl) [Example 1141, (1R,4S)-1,3,3-trimethylbicyclo[2.2.1]hept-2-yl 2,7,7-trimethyl-5-phenyl-4,5,6,7-tetrahydropyrazolo[1,5-a]pyrimidine-3-carboxylate]	149 to 150
O=C(NC1(C(=O)O)CCCCC1)c1cnn2c1N[C@H](c1ccccc1)C[C@@H]2C(F)(F)F (stereo in doubt) [Example 369, 1-(((5-phenyl-7-(trifluoromethyl)-4,5,6,7-tetrahydropyrazolo[1,5-a]pyrimidin-3-yl)carbonyl)amino)cyclohexane carboxylic acid]	236 to 237
CC(C)(NC(=O)c1cnn2c1NC(c1ccccc1)CC2(C)C)c1ccc(Cl)cc1 (stereo not shown) (as salt: HCl) [Example 791, N-(1-(4-chlorophenyl)-1-methylethyl)-7,7-dimethyl-5-phenyl-4,5,6,7-tetrahydropyrazolo[1,5-a]pyrimidine-3-carboxamide]	207 to 208
CCC(CC)(NC(=O)c1c(C)nn2c1NC(c1ccccc1)CC2(C)C)c1ccc(C(C)O)cc1 (stereo not shown) [Example 978, N-(1-ethyl-1-(4-(1-hydroxyethyl)phenyl)propyl)-2,7,7-trimethyl-5-phenyl-4,5,6,7-tetrahydropyrazolo[1,5-a]pyrimidine-3-carboxamide]	165 to 166
CCC(CC)(NC(=O)c1c(C)nn2c1NC(c1ccccc1)CC2(C)C)c1ccc(C(=O)O)cc1 (stereo not shown) [Example 979, 4-(1-ethyl-1-(((2,7,7-trimethyl-5-phenyl-4,5,6,7-tetrahydropyrazolo[1,5-a]pyrimidin-3-yl)carbonyl)amino)propyl) benzoic acid]	244 to 246

SMILES	melting point [°C]
CCC(CC)(NC(=O)c1cnn2c1NC(c1ccccc1)CC2(C)C)c1ccc(Cl)c(Cl)c1 (stereo not shown) [Example 666, N-(1-(3,4-dichlorophenyl)-1-ethylpropyl)-7,7-dimethyl-5-phenyl-4,5,6,7-tetrahydropyrazolo[1,5-a]pyrimidine-3-carboxamide]	156 to 157
CCC(CC)(NC(=O)c1cnn2c1NC(c1ccccc1)CC2(C)C)c1ccc(CCC(=O)OC(C)C)cc1 (stereo not shown) (as salt: HCl) [Example 816, isopropyl 3-(4-(1-(((7,7-dimethyl-5-phenyl-4,5,6,7-tetrahydropyrazolo[1,5-a]pyrimidin-3-yl)carbonyl)amino)-1-ethyl-propyl)phenyl)propanoate]	150 to 151
O=C(NCc1ccc(Oc2ccc(F)cc2)cc1)c1cnn2c1NC(c1ccccc1)CC2C(F)(F)F (stereo not shown) [Example 271, N-(4-(4-fluorophenoxy)benzyl)-5-phenyl-7-(trifluoromethyl)-4,5,6,7-tetrahydropyrazolo[1,5-a]pyrimidine-3-carboxamide]	169 to 172
CCC(CC)(NC(=O)c1cnn2c1NC(c1ccccc1)CC2(C)C)c1ccc(CCCO)cc1 (stereo not shown) [Example 763, N-(1-ethyl-1-(4-(3-hydroxy-propyl)phenyl)propyl)-7,7-dimethyl-5-phenyl-4,5,6,7-tetrahydropyrazolo[1,5-a]pyrimidine-3-carboxamide]	194 to 195
Cc1ccc(-n2cc3c(n2)CCN(C(=O)c2cnn4c2NC(c2ccccc2)CC4C(F)(F)F)C3)cc1 (stereo not shown) [Example 276, 2-(4-methylphenyl)-5-((5-phenyl-7-(trifluoromethyl)-4,5,6,7-tetrahydropyrazolo[1,5-a]pyrimidin-3-yl)carbonyl)-4,5,6,7-tetrahydro-2H-pyrazolo[4,3-c]pyridine]	167 to 168
CC(C)(NC(=O)c1cnn2c1NC(c1ccccc1)CC2(C)C)c1ccc(C(F)(F)F)cc1 (stereo not shown) [Example 427, 7,7-dimethyl-N-(1-methyl-1-(4-(trifluoromethyl)phenyl)ethyl)-5-phenyl-4,5,6,7-tetrahydropyrazolo[1,5-a]pyrimidine-3-carboxamide]	182 to 183
Cc1nn2c(c1C(=O)O)NC(c1ccc(F)cc1)CC2(C)C (stereo not shown) [Example 948, 5-(4-fluorophenyl)-2,7,7-trimethyl-4,5,6,7-tetrahydropyrazolo[1,5-a]pyrimidine-3-carboxylic acid]	173 to 174
O=C(NC1(C(=O)Nc2ccccc2)CCCCC1)c1cnn2c1N[C@H](c1ccccc1)C[C@@H]2C(F)(F)F (stereo in doubt) [Example 371, N-(1-(anilinocarbonyl)cyclohexyl)-5-phenyl-7-(trifluoromethyl)-4,5,6,7-tetrahydropyrazolo[1,5-a]pyrimidine-3-carboxamide]	262 to 263
CCC(CC)(CCC(F)(F)F)NC(=O)c1cnn2c1NC(c1ccccc1)CC2(C)C (stereo not shown) [Example 698, N-(1,1-diethyl-4,4,4-trifluorobutyl)-7,7-dimethyl-5-phenyl-4,5,6,7-tetrahydropyrazolo[1,5-a]pyrimidine-3-carboxamide]	84 to 85
CC1(C)CC(c2ccccc2)Nc2c(C(=O)NC3(C#N)CCCCC3)cnn21 (stereo not shown) [Example 627, N-(1-cyanocyclohexyl)-7,7-dimethyl-5-phenyl-4,5,6,7-tetrahydropyrazolo[1,5-a]pyrimidine-3-carboxamide]	> 300
CCC(CC)(NC(=O)c1c(C)nn2c1NC(c1ccccc1F)CC2(C)C)c1ccc(N(C)C)cc1 (stereo not shown) (as salt: HCl) [Example 969, N-(1-(4-(dimethylamino)phenyl)-1-ethylpropyl)-5-(2-fluorophenyl)-2,7,7-trimethyl-4,5,6,7-tetrahydropyrazolo[1,5-a]pyrimidine-3-carboxamide]	152 to 153
CCC(CC)(NC(=O)c1c(C)nn2c1N[C@@H](c1ccccc1)CC2(C)C)c1ccc(O)cc1 [Example 1064, (5R)-N-(1-ethyl-1-(4-hydroxyphenyl)propyl)-2,7,7-trimethyl-5-phenyl-4,5,6,7-tetrahydropyrazolo[1,5-a]pyrimidine-3-carboxamide]	160 to 161
CCOC(=O)c1ccc(C(CC)(CC)NC(=O)c2c(C)nn3c2NC(c2ccccc2)CC3(C)C)cc1 (stereo not shown) [Example 954, ethyl 4-(1-ethyl-1-(((2,7,7-trimethyl-5-phenyl-4,5,6,7-tetrahydropyrazolo[1,5-a]pyrimidin-3-yl)carbonyl)amino)propyl) benzoate]	152 to 153
CCC(CC)(NC(=O)c1cnn2c1N(Cc1ccccc1)C(c1ccccc1)CC2(C)C)c1ccc(C)cc1 (stereo not shown) [Example 765, 4-benzyl-N-(1-ethyl-1-(4-methylphenyl)propyl)-7,7-dimethyl-5-phenyl-4,5,6,7-tetrahydropyrazolo[1,5-a]pyrimidine-3-carboxamide]	142 to 143
CCC(CC)(NC(=O)c1cnn2c1NC(c1ccccc1)CC2(C)C)C(C)C (stereo not shown) [Example 620, N-(1,1-diethyl-2-methylpropyl)-7,7-dimethyl-5-phenyl-4,5,6,7-tetrahydropyrazolo[1,5-a]pyrimidine-3-carboxamide]	155 to 156

Source: patent US9447100B2, “Substituted pyrazolo[1,5-A] pyrimidines as calcium receptor modulating agents” (Takeda Pharmaceutical Company Limited, priority 2002, dated 2016)
